Experimental data taken from US4412988A, “Hexapeptides” (Roussel Uclaf, priority 1980, dated 1983).

System: rats
Test: Action against extinction of a practice of active avoiding a negative reinforcement (conditional avoidance response, deWeid apparatus)
Assay type: in vivo
Conditions: subcutaneous, phosphate-zinc complex, percent relative to conditional responses in first extinction test before treatment; for % of conditional response in course of extinction period after 2 hours: 2 hours after injection, untreated control 60; for % of conditional response in course of extinction period after 4 hours: 4 hours after injection, untreated control 30
Method: The action against extinction of a practice of active avoiding a negative reinforcement was determined using an apparatus described by deWeid (Proc. Soc. Ex. Biol. Med.,) Vol. 122 ([…]) p. 28). The practice is effected in a box equipped with a 60 W lamp (conditional stimulus: CS), a mat and an electrifiable floor connected to an electric stimulus which permits the delivery of a painful shock of 75 volts (unconditional stimulus US). The conditional stimulus is present only for 5 seconds, then is associated with an unconditional stimulus just as the animal grips the mat realizing as well the avoidance response desired. The conditional response is acquired when the animal responds to the conditional stimulus.
10 tests at 60 second intervals were effected daily for 3 days and examination of the extinction of the practice realized with suppression of the unconditional stimulus is followed on the 4th day with 3 tests at 2 hour intervals with the animals presenting at least 7 conditional responses.
The compounds were injected subcutaneously as a phosphate-zinc complex before the first test of extinction of practice to group of 5 rats and the results were compared with an untreated control group of rats. The evolution of the conditional response in the course of the period of extinction of practice 2 and 4 hours after the injection of the compound is expressed as the percent of variation with respect to the number of conditional responses observed in the first test of extinction before treatment.

Substance	% of conditional response in course of extinction period after 2 hours (dose 1 μg/rat) [%]	% of conditional response in course of extinction period after 4 hours (dose 1 μg/rat) [%]	% of conditional response in course of extinction period after 2 hours (dose 10 μg/rat) [%]	% of conditional response in course of extinction period after 4 hours (dose 10 μg/rat) [%]
Cyclic disulfide (1→4) of N-[cysteinylglutamylhistidylcysteinyl-D-lysyl]-phenylalanine [Example 3]	75	29	70	50
Acetate of cyclic disulide (1→4) of N-[Cysteinylalanylanylcysteinyl-D-lysyl]-phenylalanine [Example 2]	59	35	71	75
Acetate of cyclic disulfide (1→6) of N-[cysteinylalanylalanylphenylalanyl-D-lysyl]-cysteine [Example 1]	51	49	76	71
